Reference: US9993459B2, “Selective HDAC6 inhibitors and uses thereof” (Universiteit Gent, priority 2015, dated 2018)
Like-named read-outs stand apart in the source and are kept apart here.

How the values were obtained:
[1] = molecular target: T1, HDAC7 (Homo sapiens, UniProt Q8WUI4); assay: In vitro HDAC isozyme selectivity screen: HDAC7; assay type: biochemical; details: for IC50: Table 2
T1 sequence (Q8WUI4 1-952): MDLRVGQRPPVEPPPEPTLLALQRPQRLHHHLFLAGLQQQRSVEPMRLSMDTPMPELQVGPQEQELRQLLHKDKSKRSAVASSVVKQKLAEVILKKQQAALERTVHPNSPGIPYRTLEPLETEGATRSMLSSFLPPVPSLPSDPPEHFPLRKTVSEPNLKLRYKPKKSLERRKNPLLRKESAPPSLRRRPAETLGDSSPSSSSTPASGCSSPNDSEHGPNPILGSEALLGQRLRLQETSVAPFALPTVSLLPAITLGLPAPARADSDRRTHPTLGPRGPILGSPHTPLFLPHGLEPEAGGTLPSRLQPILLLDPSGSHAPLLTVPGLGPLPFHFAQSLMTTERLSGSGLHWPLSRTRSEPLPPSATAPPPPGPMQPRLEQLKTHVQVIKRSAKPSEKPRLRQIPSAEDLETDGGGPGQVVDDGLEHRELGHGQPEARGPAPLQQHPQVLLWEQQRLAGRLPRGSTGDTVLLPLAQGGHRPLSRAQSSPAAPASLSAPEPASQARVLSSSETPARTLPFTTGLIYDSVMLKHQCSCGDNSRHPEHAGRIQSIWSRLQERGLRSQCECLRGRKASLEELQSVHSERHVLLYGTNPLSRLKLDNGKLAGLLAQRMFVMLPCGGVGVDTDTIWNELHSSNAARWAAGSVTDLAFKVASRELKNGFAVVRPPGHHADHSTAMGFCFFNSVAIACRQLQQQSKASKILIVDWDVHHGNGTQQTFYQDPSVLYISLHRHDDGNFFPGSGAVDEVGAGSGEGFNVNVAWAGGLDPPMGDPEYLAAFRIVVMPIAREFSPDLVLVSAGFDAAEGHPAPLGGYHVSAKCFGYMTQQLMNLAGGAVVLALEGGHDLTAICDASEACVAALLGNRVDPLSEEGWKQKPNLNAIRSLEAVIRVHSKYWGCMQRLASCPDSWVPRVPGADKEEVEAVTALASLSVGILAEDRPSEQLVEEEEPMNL

[2] = molecular target: T2, HDAC6 (Homo sapiens, UniProt Q9UBN7); assay: In vitro HDAC6 inhibition; assay type: biochemical; details: for inhibition at 10 µM: HDAC6, 10 μM
T2 sequence (Q9UBN7 1-1215): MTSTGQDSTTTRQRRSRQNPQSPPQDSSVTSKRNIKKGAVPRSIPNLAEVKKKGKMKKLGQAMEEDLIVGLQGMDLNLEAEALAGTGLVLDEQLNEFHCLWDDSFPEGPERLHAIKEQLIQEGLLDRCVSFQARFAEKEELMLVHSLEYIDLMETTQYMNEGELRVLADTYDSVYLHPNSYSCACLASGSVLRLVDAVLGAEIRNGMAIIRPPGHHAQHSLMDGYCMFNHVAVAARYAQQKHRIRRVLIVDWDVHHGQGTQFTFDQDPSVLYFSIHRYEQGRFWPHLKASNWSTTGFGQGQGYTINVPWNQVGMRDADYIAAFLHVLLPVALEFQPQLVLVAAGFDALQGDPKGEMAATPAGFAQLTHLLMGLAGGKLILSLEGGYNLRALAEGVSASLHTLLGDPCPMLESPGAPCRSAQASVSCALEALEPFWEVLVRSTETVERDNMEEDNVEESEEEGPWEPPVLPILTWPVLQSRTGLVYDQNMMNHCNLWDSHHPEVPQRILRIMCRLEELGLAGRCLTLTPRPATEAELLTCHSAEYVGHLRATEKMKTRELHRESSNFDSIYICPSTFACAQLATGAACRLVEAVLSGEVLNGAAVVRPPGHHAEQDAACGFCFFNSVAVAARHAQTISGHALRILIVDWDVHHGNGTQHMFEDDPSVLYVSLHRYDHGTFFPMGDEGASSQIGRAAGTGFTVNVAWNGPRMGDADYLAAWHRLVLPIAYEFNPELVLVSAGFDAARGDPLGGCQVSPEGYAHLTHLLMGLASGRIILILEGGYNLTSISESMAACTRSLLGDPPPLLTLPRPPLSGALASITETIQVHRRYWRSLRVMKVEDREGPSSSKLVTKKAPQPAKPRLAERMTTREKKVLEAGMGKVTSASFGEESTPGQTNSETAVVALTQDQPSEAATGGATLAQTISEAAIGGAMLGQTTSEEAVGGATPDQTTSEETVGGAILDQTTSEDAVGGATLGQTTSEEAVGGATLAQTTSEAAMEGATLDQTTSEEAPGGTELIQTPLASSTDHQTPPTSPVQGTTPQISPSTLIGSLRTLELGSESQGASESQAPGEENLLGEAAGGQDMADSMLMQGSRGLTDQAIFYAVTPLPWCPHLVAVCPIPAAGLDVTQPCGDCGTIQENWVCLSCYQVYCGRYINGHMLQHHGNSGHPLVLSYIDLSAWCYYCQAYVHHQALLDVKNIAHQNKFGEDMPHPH

effect at 100 μM, HDAC7 ([1]; 100 μM) | inhibition at 10 µM [2] [%] | IC50 ([2]; HDAC6, Table 1, read-out: IC50) [nM] | IC50 ([2]; Table 2, read-out: IC50 HDAC6) [nM] | Compound | IC50 [1] [nM]
less than 50% | 99.2 | 37 | 37 | O=C(NO)c1ccc(NCc2csc3ccc(Br)cc23)cc1 [Compound 7b, 5-bromo-3-[(4-hydroxycarbamoylphenyl)aminomethyl]-benzothiophene] | –
– | 99.3 | 64 | – | O=C(NO)c1ccc(NCc2csc3cc(Br)ccc23)cc1 [Compound 13a, 6-bromo-3-[(4-hydroxycarbamoylphenyl)aminomethyl]-benzothiophene] | 12000

Compound | effect at 100 μM, HDAC7 ([1]; 100 μM) | inhibition at 10 µM [2] [%] | IC50 ([2]; HDAC6, Table 1, read-out: IC50) [nM] | IC50 ([2]; Table 2, read-out: IC50 HDAC6) [nM] | IC50 [1] [nM]
O=C(NO)c1ccc(NCc2csc3ccccc23)cc1 [Compound 7a, 3-[(4-hydroxycarbamoylphenyl)aminomethyl]benzothiophene] | – | 99.8 | 14 | – | 5200
